Measurements published in patent US12600726B2, “Antagonists of the muscarinic acetylcholine receptor M4” (Vanderbilt University, priority 2017, dated 2026).

Key:
Human M4 = target: T1, Human M4 (Homo sapiens, UniProt P08173); assay: mAChR M4 cell-based functional calcium flux assay (human M4/Gqi5/CHO cells); conditions: for Emin (human M4): % ACh maximum at 30 μM; for IC50: decrease of the response to an EC80 concentration of acetylcholine
T1 construct: expressed in transfected cells; host or cells: CHO-K1 (ATCC), stably expressing M4 and Gqi5
T1 sequence (P08173 1-479): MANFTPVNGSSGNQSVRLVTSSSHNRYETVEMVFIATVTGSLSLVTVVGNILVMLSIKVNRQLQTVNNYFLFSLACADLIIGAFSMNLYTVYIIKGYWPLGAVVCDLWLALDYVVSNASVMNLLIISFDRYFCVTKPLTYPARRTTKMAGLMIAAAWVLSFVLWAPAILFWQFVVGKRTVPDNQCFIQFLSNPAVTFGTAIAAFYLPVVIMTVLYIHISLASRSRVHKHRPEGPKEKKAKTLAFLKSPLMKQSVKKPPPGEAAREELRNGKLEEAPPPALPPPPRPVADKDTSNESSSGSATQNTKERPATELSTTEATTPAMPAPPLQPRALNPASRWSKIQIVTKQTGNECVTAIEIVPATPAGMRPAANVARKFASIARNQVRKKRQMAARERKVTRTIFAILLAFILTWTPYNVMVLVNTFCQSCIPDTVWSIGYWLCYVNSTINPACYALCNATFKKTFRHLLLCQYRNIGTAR
Method: (§1) Human, rat, or mouse M4. cDNA, along with the chimeric G protein Gqi5, were transfected into Chinese hamster ovary (CHO-K1) cells purchased from the American Type Culture Collection using Lipofectamine2000. M4/Gqi5/CHO cells were grown in Ham's F-12 medium containing 10% heat-inactivated fetal bovine serum (FBS), 20 mM HEPES, 500 μg/mL G418 sulfate, and 200 μg/mL Hygromycin B.
(§2) For high throughput measurement of agonist-evoked increases in intracellular calcium, CHO-K1 cells stably expressing muscarinic receptors were plated in growth medium lacking G418 and hygromycin at 15,000 cells/20 μL/well in Greiner 384-well black-walled, tissue culture (TC)-treated, clear-bottom plates (VWR). Cells were incubated overnight at 37° C. and 5% CO2. The next day, cells were washed using an ELX 405 (BioTek) with assay buffer; the final volume was then aspirated to 20 μL. Next, 20 μL of a 2.3 μM stock of Fluo-4/acetoxymethyl ester (Invitrogen, Carlsbad, CA), prepared as a 2.3 mM stock in DMSO and mixed in a 1:1 ratio with 10% (w/v) Pluronic F-127 and diluted in assay buffer, was added to the wells and the cell plates were incubated for 50 min at 37° C. and 5% CO2. Dye was removed by washing with the ELX 405 and the final volume was aspirated to 20 μL. Compound master plates were formatted in a 10 point concentration-response curve (CRC) format (1:3 dilutions) in 100% DMSO with a starting concentration of 10 or 1 mM using a BRAVO liquid handler (Agilent). Test compound CRCs were then transferred to daughter plates (240 nL) using the Echo acoustic plate reformatter (Labcyte, Sunnyvale, CA) and then diluted into assay buffer (40 μL) to a 2× stock using a Thermo Fisher Combi (Thermo Fisher Scientific, Waltham, MA).
(§3) Calcium flux was measured using the Functional Drug Screening System (FDSS) 6000 or 7000 (Hamamatsu Corporation, Tokyo, Japan) as an increase in the fluorescent static ratio. Compounds were applied to cells (20 μL, 2×) using the automated system of the FDSS at 2 seconds into the protocol and the data were collected at 1 Hz. At 143 s, 10 μL of an EC20 concentration of the muscarinic receptor agonist acetylcholine was added (5×), followed by the addition of 12 μL of an EC80 concentration of acetylcholine at the 268 s time point (5×). Agonist activity was analyzed as a concentration-dependent increase in calcium mobilization upon compound addition. Positive allosteric modulator activity was analyzed as a concentration-dependent increase in the EC20 acetylcholine response. Antagonist activity was analyzed as a concentration-dependent decrease in the EC80 acetylcholine response; for the purposes of the tables herein, an IC50 (inhibitory concentration 50) was calculated as a concentration-dependent decrease of the response elicited by an EC80 concentration of acetylcholine. Concentration-response curves were generated using a four-parameter logistical equation in XLFit curve fitting software (IDBS, Bridgewater, NJ) for Excel (Microsoft, Redmond, WA) or Prism (GraphPad Software, Inc., San Diego, CA) or the Dotmatics software platform (Dotmatics, Bishop's Stortford, UK).
(§4) Compounds were synthesized as described above. Activity (IC50 and Emin) was determined in the mAChR M4 cell-based functional assay as described above and the data are shown in Table 2 and Table 3. The compound number corresponds to the compound numbers used in the examples and Tables 1 and 1.1.

Rat M4 = target: T2, Rat M4 (Rattus norvegicus, UniProt P08485); assay: mAChR M4 cell-based functional calcium flux assay (rat M4/Gqi5/CHO cells); conditions: for Emin (rat M4): % ACh maximum at 30 μM
T2 construct: expressed in transfected cells; host or cells: CHO-K1 (ATCC), stably expressing M4 and Gqi5
T2 sequence (P08485 1-478): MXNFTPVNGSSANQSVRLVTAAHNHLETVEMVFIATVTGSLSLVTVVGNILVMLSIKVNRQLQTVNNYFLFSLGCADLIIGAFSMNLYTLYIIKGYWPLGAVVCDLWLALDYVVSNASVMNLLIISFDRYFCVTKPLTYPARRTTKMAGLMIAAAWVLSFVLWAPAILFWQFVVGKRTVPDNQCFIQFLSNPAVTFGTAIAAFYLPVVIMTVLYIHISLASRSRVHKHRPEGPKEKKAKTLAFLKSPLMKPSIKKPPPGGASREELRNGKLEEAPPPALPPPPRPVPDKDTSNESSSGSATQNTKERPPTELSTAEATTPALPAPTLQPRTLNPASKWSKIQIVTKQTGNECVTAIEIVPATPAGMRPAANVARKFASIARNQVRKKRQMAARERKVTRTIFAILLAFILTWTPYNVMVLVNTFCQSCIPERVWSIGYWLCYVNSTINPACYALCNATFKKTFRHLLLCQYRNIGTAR
Method: as §1, §2, §3, §4

[1] = decrease of the response to an EC80 concentration of acetylcholine
[2] = cells printed in μM, decrease of the EC80 acetylcholine response

SMILES	Emin (human M4) (Human M4) [%]	IC50 (Human M4) [nM]	Emin (rat M4) (Rat M4) [%]	IC50 (Rat M4; [1]) [µM]	IC50 (Rat M4; [2]) [µM]
Cc1nn(C)c(C)c1-c1ccc(NCC2CC23CCN(CCC(C)(C)C)CC3)nn1 (centres unmarked) [Compound 36, N-[[6-(3,3-dimethylbutyl)-6-azaspiro[2.5]octan-2-yl]methyl]-6-(1,3,5-trimethylpyrazol-4-yl)pyridazin-3-amine]	2.61	6.1	4.52	0.0328	
Cc1nn(C)cc1-c1ccc(NCC2CC23CCN(CC2CC4C=CC2C4)CC3)nc1 (centres unmarked) [Compound 70, N-[[6-(5-bicyclo[2.2.1]hept-2-enylmethyl)-6-azaspiro[2.5]octan-2-yl]methyl]-5-(1,3-dimethylpyrazol-4-yl)pyridin-2-amine]	3.29	45.2	3.96	0.17	
C1=CC2CC1CC2CN1CCC2(CC1)CC2CNc1ccc(N2CCOCC2)nn1 (centres unmarked) [Compound 82, N-[[6-(5-bicyclo[2.2.1]hept-2-enylmethyl)-6-azaspiro[2.5]octan-2-yl]methyl]-6-morpholino-pyridazin-3-amine]	3	5.06	6	0.0482	
Cc1cccnc1CN1CCC2(CC1)CC2CNc1ccc(-c2cn(C)nc2C)nn1 (centres unmarked) [Compound 62, 6-(1,3-dimethylpyrazol-4-yl)-N-[[6-[(3-methyl-2-pyridyl)methyl]-6-azaspiro[2.5]octan-2-yl]methyl]pyridazin-3-amine]	4.23	271	19.9	4.46	
Cc1nn(C)cc1-c1nnc(NCC2CC23CCN(CC24CC5CC(CC(C5)C2)C4)CC3)c2ccccc12 (centres unmarked) [Compound 89, N-[[6-(1-adamantylmethyl)-6-azaspiro[2.5]octan-2-yl]methyl]-4-(1,3-dimethylpyrazol-4-yl)phthalazin-1-amine]	3	170	4	0.35	
CC(=O)Nc1ccc(-c2ccc(NC[C@H]3CC34CCN(CC3CCOCC3)CC4)nn2)cc1 [Compound 126, N-[4-[6-[[(2S)-6-(tetrahydropyran-4-ylmethyl)-6-azaspiro[2.5]octan-2-yl]methylamino]pyridazin-3-yl]phenyl]acetamide]	14	1810	28		≥ 10
CC(C)(C)CCN1CCC2(CC1)CC2CNc1ccc(-c2cnccc2C(F)(F)F)nn1 (centres unmarked) [Compound 49, N-[[6-(3,3-dimethylbutyl)-6-azaspiro[2.5]octan-2-yl]methyl]-6-[4-(trifluoromethyl)-3-pyridyl]pyridazin-3-amine]	2.64	12.8	2.44	0.0943	
CC(C)(C)CCN1CCC2(CC1)CC2CNc1ccc(-c2ccccc2)nn1 (centres unmarked) [Compound 34, N-[[6-(3,3-dimethylbutyl)-6-azaspiro[2.5]octan-2-yl]methyl]-6-phenyl-pyridazin-3-amine]	2.24	17.8	2.88	0.0862	
c1ccc(-c2cnc(NCC3CC34CCN(CC3CCOCC3)CC4)s2)cc1 (centres unmarked) [Compound 73, 5-phenyl-N-[[6-(tetrahydropyran-4-ylmethyl)-6-azaspiro[2.5]octan-2-yl]methyl]thiazol-2-amine]	8.96	6550	9.84	3.09	
COc1ccc(F)cc1-c1ccc(NCC2CC23CCN(CCC(C)(C)C)CC3)nn1 (centres unmarked) [Compound 31, N-[[6-(3,3-dimethylbutyl)-6-azaspiro[2.5]octan-2-yl]methyl]-6-(5-fluoro-2-methoxy-phenyl)pyridazin-3-amine]	3.03	22.1	2.87	0.0688	
Cc1nn(C)cc1-c1cnc(NCC2CC23CCN(CC(C)C(C)(C)C)CC3)cn1 (centres unmarked) [Compound 22, 5-(1,3-dimethylpyrazol-4-yl)-N-[[6-(2,3,3-trimethylbutyl)-6-azaspiro[2.5]octan-2-yl]methyl]pyrazin-2-amine]	3.25	169	4.67	0.404	
CC(=O)Nc1ccc(-c2ccc(NC[C@@H]3CC34CCN(Cc3ccc(F)cc3)CC4)nn2)cc1 [Compound 123, N-[4-[6-[[(2R)-6-[(4-fluorophenyl)methyl]-6-azaspiro[2.5]octan-2-yl]methylamino]pyridazin-3-yl]phenyl]acetamide]	5	575	4	0.207	
Cc1ccsc1-c1ccc(NCC2CC23CCN(CCC(C)(C)C)CC3)nn1 (centres unmarked) [Compound 42, N-[[6-(3,3-dimethylbutyl)-6-azaspiro[2.5]octan-2-yl]methyl]-6-(3-methyl-2-thienyl)pyridazin-3-amine]	2.88	11.2	2.94	0.0497	
CC(=O)Nc1ccc(-c2ccc(NC[C@@H]3CC34CCN(CC3CCOCC3)CC4)nn2)cc1 [Compound 121, N-[4-[6-[[(2R)-6-(tetrahydropyran-4-ylmethyl)-6-azaspiro[2.5]octan-2-yl]methylamino]pyridazin-3-yl]phenyl]acetamide]	3	68.2	9	0.0437	
CC(C)(C)CCN1CCC2(CC1)CC2CNc1ccc(C2=CCCC2)nn1 (centres unmarked) [Compound 90, 6-(cyclopenten-1-yl)-N-[[6-(3,3-dimethylbutyl)-6-azaspiro[2.5]octan-2-yl]methyl]pyridazin-3-amine]			5	0.347	
Fc1ccc(Cl)c(-c2ccc(OCC3CC34CCN(CC3CCCCC3)CC4)nn2)c1 (centres unmarked) [Compound 87, 2-[[6-(2-chloro-5-fluoro-phenyl)pyridazin-3-yl]oxymethyl]-6-(cyclohexylmethyl)-6-azaspiro[2.5]octane]			3	1.05	
Cc1cnn(C)c1-c1ccc(NCC2CC23CCN(CCC2CCCO2)CC3)nn1 (centres unmarked) [Compound 4, 6-(1,4-dimethyl-1H-pyrazol-5-yl)-N-((6-(2-(tetrahydrofuran-2-yl)ethyl)-6-azaspiro[2.5]octan-1-yl)methyl)pyridazin-3-amine]			26.5		> 10
